{"source": "paper PMC5354814", "about": "“In silico and in vitro drug screening identifies new therapeutic approaches for Ewing sarcoma” (Oncotarget, 2016)", "key": {"rate leukocytes": {"tested_on": "rate leukocytes", "set-up": "method as in ref 19 (a number printed in a supplementary file, which may have a reference list of its own: not looked up in the article's list)", "conditions": "10^-3 to 10^-6M; cited from earlier work"}, "[1]": {"conditions": "cited from earlier work"}, "[2]": {"conditions": "cited from earlier work", "remark": "listed apart in the source"}, "[3]": {"set-up": "method as in ref 19 (a number printed in a supplementary file, which may have a reference list of its own: not looked up in the article's list)", "conditions": "5 and 10 µg gold/kg for 2 weeks; cited from earlier work"}, "[4]": {"set-up": "method as in ref 19 (a number printed in a supplementary file, which may have a reference list of its own: not looked up in the article's list)", "conditions": "0.625 - 10 mg gold/kg p.o.; cited from earlier work"}, "Hs 919.T.": {"tested_on": "Hs 919.T.", "test": "Hits validation, dose-response cell proliferation (CellTiter-Glo)", "assay_type": "cell-based", "conditions": "control cell line, 12-point dose-response, mean ± SD", "method": "These drugs were chosen based on their known mechanisms and safety profiles. We also tested the synergy between these drug hits (Supplementary Figures S6–S11). […] We evaluated the anti-proliferation effect in combination treatments using the EWS and control cell lines.\nFor hits validation and combination study, cells were harvested and aliquoted into 384-well plates at concentrations of 750–1,500 cells per well in a total of 20 μl/well using a Matrix Wellmate (Thermo Scientific). Five μl of culture media containing either vehicles or drug were added to each well the next day (drug concentrations range from 1 nmol/L to 50 μmol/L). For combination study, selected drugs were archived in robotically accessible plates, to which media was added in preparation for addition to master plates by a Nimbus 96 liquid-dispensing workstation (Hamilton). Liquid transfers to dilution and assay plates were handled using the same workstation. Each 384-well master plate contained four 9 by 9 dose-matrix blocks, with eight serial two-fold dilutions (concentrations range from 7.8 nmol/L to 1 μmol/L). Additional wells were reserved for untreated, and vehicle-treated control wells. Cell proliferation was evaluated using Cell-Titer Glo® reagents (Promega). IC50 values were determined for each drug using SigmaPlot (Systat Software). The combination index values were calculated using SigmaPlot (Systat Software) and CompuSyn."}, "rat lung": {"tested_on": "rat lung", "set-up": "method as in ref 19 (a number printed in a supplementary file, which may have a reference list of its own: not looked up in the article's list)", "conditions": "1.5 x 10^-4M; cited from earlier work"}, "[5]": {"test": "Dissociation of auranofin in plasma, whole blood and simulated gastric fluid", "assay_type": "in vitro ADME", "conditions": "unpublished results"}, "platelet": {"tested_on": "platelet", "set-up": "method as in ref 19 (a number printed in a supplementary file, which may have a reference list of its own: not looked up in the article's list)", "conditions": "10 µg/mL; cited from earlier work"}}, "note": "Read-outs that look alike come from different tables or passages of the source."}
{"compound": "CC(=O)OC[C@H]1O[C@@H]([S-])[C@H](OC(C)=O)[C@@H](OC(C)=O)[C@@H]1OC(C)=O.CCP(CC)CC.[Au+]", "note": "[Auranofin, auranofin]", "values": [{"measurement": "particle-stimulated lysosomal enzyme release", "setting": "rate leukocytes", "value": "significantly reduced"}, {"measurement": "findings in pregnant rats", "setting": "[1]; 2.5 mg/kg/day", "value": "No such effects were found"}, {"measurement": "findings in pregnant rats", "setting": "[1]; 5 mg/kg/day", "value": "increase above controls in the inc idence of resorptions and a decrease in litter size"}, {"measurement": "perinatal and postnatal study findings, high dose group", "setting": "[1]; female rats, 8 mg/kg/day, last trimester and lactation", "value": "An increase in fetal resorption"}, {"measurement": "general reproductive performance", "setting": "[1]; female rats, oral 0.25, 0.75 and 3.0 mg/kg/day", "value": "no adverse effect on estrous cyclicity"}, {"measurement": "litter size, birth weight or viability of the offspring", "setting": "[1]; female rats, oral 0.5, 2.5 and 5 mg/kg/day, days 6-15 of pregnancy", "value": "no effect on litter size"}, {"measurement": "teratogenic effects in pregnant mice", "setting": "[2]; 5 mg/kg/day", "value": "no ter atogenic"}, {"measurement": "embryotoxic or teratogenic effect in mice", "setting": "[2]; oral 0.2, 1 and 5 mg/kg/day, days 6-15 of pregnancy", "value": "no embryotoxic or teratogenic effect"}, {"measurement": "hemagglutinating IgG antibodies to SRBC and antibodies to mouse fibroblasts", "setting": "[3]", "value": "suppressed"}, {"measurement": "suboptimal delayed hypersensitivity response", "setting": "[4]", "value": "stimulatory effect"}, {"measurement": "IC50", "setting": "Hs 919.T.", "value": "5.38 ± 0.89", "unit": "µM"}, {"measurement": "ovalbumin antigen-induced release of histamine", "setting": "rat lung", "value": "inhibition"}, {"measurement": "stability in plasma and whole blood ex vivo and simulated gastric fluid in vitro", "setting": "[5]", "value": "immediately and completely dissociates"}, {"measurement": "epinephrine-, ADP-, or collagen-induced platelet aggregation", "setting": "platelet", "value": "potent"}]}
